Assay results as given in patent US10688119B2, “Inhibitors of PCSK9 for treatment of lipoprotein metabolism disorders” (Aarhus Universitet, priority 2015, dated 2020).
“Also recorded” adds a separate entry of the source. Where two headings read alike, the source gives them in different places.

Tests used:
[1] = heparin affinity chromatography of PCSK9 and variants; assay type: binding; conditions: conditioned media, Heparin Sepharose CL-6B beads
Method: Purified PCSK9 was loaded onto a 5 ml HiTrap Heparin HP column (GE Healthcare) in PBS. The column was connected to an Äkta Prime and washed with 5 column volumes of 10 mM NaH2PO4 (pH 7.4). PCSK9 was eluted using a linear gradient of 10 mM NaH2PO4 (pH 7.4) and 2 M NaCl and fractions were analyzed by SDS-PAGE. Based on the measured conductivity, the elution profile was transformed to a function of NaCl concentration using the transformation coefficient 0.065 mS/mM NaCl. PCSK9 was retained on the heparin column and eluted at a NaCl concentration of approximately 500 mM (FIG. 2E), indicating a strong and highly specific interaction with heparin.
(§1) In a different experiment, conditioned media from HepG2 cells were incubated with Heparin Sepharose CL-6B beads (GE Healthcare) in 10 mM NaH2PO4 (binding buffer). Following overnight incubation on a rotor at 4⊐ C, beads were washed in binding buffer before batch elution of heparin bound proteins in increasing concentration of NaCl. PCSK9 in input, flow through, and elution fractions were evaluated by Western blotting.
as §1, with “Conditioned” for “In a different experiment, conditioned”, “CHO” for “HepG2”, “cells transfected with PCSK9 variants of interest” for “cells”, “4° C.,” for “4⊐ C,”

LDLR in HepG2 cells [2] = assay: LDLR levels in HepG2 cells by Western blot/densitometry (PCSK9 induced LDLR degradation)
Method: (§2) Purified PCSK9 variants were tested in a cell assay to test their ability to induce degradation of LDLR compared to wild-type PCSK9. Induction of LDLR degradation was analyzed by incubation of HepG2 cells with wild type PCSK9 (WT) or the above PCSK9 mutants and LDLR levels were assessed by Western blotting. HepG2 cells were seeded at a density 250.000 cells per well in 12-well plates. […] Cells were harvested and lysed following 18 hours incubation and LDLR levels were assessed by Western blotting and quantification by densitometry.
The PCSK9 inhibitory effect of overnight incubation with suramin (0-200 μg/ml) was tested in HepG2 cells (FIG. 9 A-B).

J774 macrophages = tested on: J774 macrophages; design: dose or concentration left out as unconfirmed; conditions: cited from earlier work
apoE−/− mice = conditions: 4-week treatment, cited from earlier work
PCSK9 = PCSK9 (Homo sapiens, UniProt Q8NBP7); assay: Microscale Thermophoresis (MST) equilibrium binding to PCSK9; conditions: 100 nM labelled PCSK9, PBS+0.05% Tween-20; for Kd: read-out: KD (affinity for PCSK9, MST)
PCSK9, sequence (Q8NBP7 153-692): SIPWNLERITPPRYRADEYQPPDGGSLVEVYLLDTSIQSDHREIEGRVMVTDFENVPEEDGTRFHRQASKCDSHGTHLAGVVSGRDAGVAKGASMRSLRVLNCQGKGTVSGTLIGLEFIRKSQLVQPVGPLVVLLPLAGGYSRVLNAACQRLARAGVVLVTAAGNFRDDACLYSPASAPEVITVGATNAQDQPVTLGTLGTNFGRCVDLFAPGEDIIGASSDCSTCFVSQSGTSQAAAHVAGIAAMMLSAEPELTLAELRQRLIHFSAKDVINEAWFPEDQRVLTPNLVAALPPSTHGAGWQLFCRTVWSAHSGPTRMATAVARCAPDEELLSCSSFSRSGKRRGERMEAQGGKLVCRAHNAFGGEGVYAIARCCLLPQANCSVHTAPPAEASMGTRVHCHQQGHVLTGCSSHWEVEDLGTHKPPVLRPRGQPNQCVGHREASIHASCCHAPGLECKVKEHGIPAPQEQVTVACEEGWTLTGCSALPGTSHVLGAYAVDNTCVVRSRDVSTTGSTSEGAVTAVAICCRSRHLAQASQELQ
Method: PCSK9 was labeled using the MO-L003 Monolith Blue-NHS labeling kit (NanoTemper Technologies) and a labeling efficiency of 1:1 molar ratio of protein to dye was achieved. PCSK9 was applied at a final concentration of 100 nM. […] MST measurements were performed in standard-treated capillaries (NanoTemper Technologies) on a Monolith NT.115 instrument (NanoTemper Technologies) using 20% LED and 80% MST power. Laser on and off times were 5 s and 35 s, respectively. Negative controls were performed using 100 nM of labelled PCSK9 in MST buffer in all 16 capillaries under the same conditions as mentioned above. […] For each binding partner, the sigmoidal dose-response curves were fitted with GraphPad Prism 6 to yield an average KD value.

LDLR in HepG2 cells [3] = assay: LDLR degradation in HepG2 cells induced by PCSK9 WT or mutant; assay type: cell-based, human; conditions: 10 nM PCSK9, 18 hours
Method: as §2

LDLR in liver = assay: liver LDLR levels in mice after intravenous PCSK9 (Western blot); assay type: in vivo, mice (BALB6/cJRj); conditions: for liver LDLR level / PCSK9 induced degradation of LDLR in vivo: 1 hour after PCSK9 10 μg, heparin 50 U or suramin 300 μg co-injected, heparinase I 30 U infused before
Method: To test the effect of enzymatic removal of heparan sulfate GAGs on PCSK9 activity in vivo 10-12 week-old male BALB6/cJRj mice were infused with heparinase I (30 U) administered through a tail vein catheter 5 min prior injection of PCSK9 (10 μg). In control mice the heparinase injection and/or the PCSK9 injection were replaced with an injection of 0.9% saline. During heparinase infusion, mice were lightly anaesthetized with isoflurane continuously administered through a mask.
Mice (BALB6/cJRj) were subjected to a single intravenous administration (tail vein) of 10 μg human recombinant PCSK9 alone or in combination with heparin (50 U). One hour post injection mice were sacrificed and liver tissues were collected.

HepG2 cells = assay: uptake of Bodipy-labelled LDL particles in HepG2 cells; assay type: cell-based, human; conditions: suramin 200 μg/ml overnight, then 4 hours 10 ng/ml Bodipy LDL
Method: FIG. 12: Bar graphs showing the relative fluorescence signal in HepG2 cells after overnight incubation with suramin (200 μg/ml) following 4 hours incubation with 10 ng/ml LDL particles labeled with fluorescence dye Bodipy.

[4] = tested on: cell surface PCSK9 on HepG2 cells; assay: surface PCSK9 immunostaining of non-permeabilized HepG2 cells stably expressing PCSK9; assay type: cell-based, human; conditions: heparinase I 0.0002 UN/ml, 1 h
Method: We speculated that HSPG might be involved in the capture of PCSK9. Thus, we treated human hepatocyte-derived HepG2 cells stably expressing PCSK9 with heparinase I. The enzyme heparinase I cleaves heparan sulfate GAG chains at the 1,4 O-linkage between uronic acid and D-glucosamine, thereby removing cell surface heparan sulfate chains.
HepG2 cells stably transfected with PCSK9 were seeded at 50.000 cells per coverslip and incubated overnight before addition of heparinase I (Sigma Aldrich/H2519) in PBS (0.0002 UN/ml) or PBS alone. Cells were incubated for 1 h. at 37⊐ C, before fixation in 4% paraformaldehyd and immunostaining of non-permeabilized cells with primary and secondary antibodies. Nuclei were visualized with Hoechst dye (Sigma Aldrich). Images were acquired on a Zeiss LSM780.

[5] = molecular target: T1, R93R96R97R104R105H139 PCSK9 mutant and variants (Homo sapiens, UniProt Q8NBP7, H139A/R104A/R105A/R93A/R96A/R97A); assay: immunoprecipitation of 35S-mutant PCSK9 and PCSK9 variants; assay type: binding; conditions: 500 μl conditioned hybridoma media
T1 construct: expressed in transfected cells
Method: Western blot of GAPDH is shown as loading control. (B) Western Blot showing LDLR levels in liver of mice 1 hour afterintravenous administration of 10 μg PCSK9 alone or in combination with 50 U Heparin. 50 μg membrane preparations were loaded. As control is shown Western Blot for sortilin, a PCSK9 receptor previously shown not to be target of PCSK9 induced degradation. (C) Quantification of B) Bands were quantified by densitometry and dot plot show the individual level of each sample in percent of vehicle (0.9% NaCl) injected controls with mean values and SEM. […] (D) Autoradiography (16 h exposure) showing immunoprecipitation of native human ^35S labeled PCSK9 by serum (1 μl) from three rats immunized with DNA encoding rat PCSK9 with human HSPG binding domain. As negative controls were used preimmune serum from the animals. (E) Western Blot showing LDLR in HepG2 cells after overnight incubation with preimmune or immune IgG (1 μg/ml). […] (F) Autoradiography (16 h exposure) showing immunoprecipitation of human ^35S-PCSK9 by 24 individual mAbs (500 μl conditioned hybridoma media) selected in ELISA screening performed by Aldevron. […] (G) Bar graphs showing LDLR levels (average of 2-4 experiments with SEM) in HepG2 cells incubated with mAbs (1:10 dilution of conditioned hybridoma media) as analysed by Western Blot. Twelve individual mAb clones give an approximately two-fold increase LDLR. (H) Autoradiography (16 h exposure) showing immunoprecipitation of human ^35S-mutant PCSK9 (with R93R96R97R104R105H139 mutated to alanine residues) by 12 individual mAbs (500 μl conditioned hybridoma media) all showing PCSK9 inhibitory effect. As control was used a polyclonal antibody (pAb, AF3888 from R&D systems). […] As control was used R&D Systems AF3888 (pAb).
These 12 clones were tested to see whether they can bind an R93R96R97R104R105H139 PCSK9 mutant (FIG. 8H).

[6] = suramin 50 and PPADS 25 mg·kg-1·day-1

Mutant R93R104R105H139A: PCSK9 alanine substitution variant
binding to heparin (affinity chromatography) [1]: do not bind heparin; also recorded: did not bind to heparin

CO[C@H]1O[C@H](COS(=O)(=O)O)[C@@H](O[C@@H]2O[C@@H](C(=O)O)[C@@H](O[C@H]3O[C@H](COS(=O)(=O)O)[C@@H](O[C@@H]4O[C@H](C(=O)O)[C@@H](O[C@H]5O[C@H](COS(=O)(=O)O)[C@@H](O)[C@H](O)[C@H]5NS(=O)(=O)O)[C@H](O)[C@H]4O)[C@H](OS(=O)(=O)O)[C@H]3NS(=O)(=O)O)[C@H](O)[C@H]2OS(=O)(=O)O)[C@H](O)[C@H]1NS(=O)(=O)O [Arixtra, Fondaparinux]
LDLR level in HepG2 cells (LDLR in HepG2 cells [2]; Arixtra 25-250 μg/ml, 24 h): elevated level of LDLR
LDLR level in HepG2 cells (LDLR in HepG2 cells [2]; Arixtra 25-250 μg/ml, 24 h, listed as Fondaparinux): increased levels of LDLR

Cc1nc(N=Nc2ccc(S(=O)(=O)O)cc2S(=O)(=O)O)c(COP(=O)(O)O)c(C=O)c1O [PPADS, pyridoxal-phosphate-6-azophenyl-2′-4′-disulphonic acid]
block of UDP effect on iNOS and interleukin-6 (J774 macrophages): blocked
plaque size (apoE−/− mice; suramin 50 and PPADS 25 mg·kg-1·day-1, listed as PPDAS): reduce plaque size
plaque size (apoE−/− mice; [6]): reduces plaque size

dextran [non-sulfated dextran]
KD (affinity for PCSK9, MST) (PCSK9): no affinity

WT PCSK9: wild type human PCSK9 (SEQ ID NO: 1)
LDLR levels in HepG2 cells incubated with PCSK9 variant (LDLR in HepG2 cells [3]): significantly lower levels of LDLR
LDLR level in liver in percent of vehicle injected controls (LDLR in liver; 1 hour after intravenous 10 μg PCSK9 alone or with 50 U Heparin, n=7 mice/group): 24.0±4.04%
binding to heparin (affinity chromatography) [1]: bound heparin Sepharose

dextran sulphate [dextran sulfate]
Kd (PCSK9): 180 µM
LDLR level in HepG2 cells (LDLR in HepG2 cells [2]; dextran sulphate 0-200 μg/ml, 24 hour): concentration dependent increase of LDLR
LDLR level in HepG2 cells (LDLR in HepG2 cells [2]; dextran sulphate 0-200 μg/ml, 24 hour, listed as dextran sulphate): potently increase the cellular level of LDLR
plateau of cellular LDLR compared to vehicle control (LDLR in HepG2 cells [2]; dose-dependent, HepG2 cells): around 400%

Cc1ccc(C(=O)Nc2ccc(S(=O)(=O)O)c3cc(S(=O)(=O)O)cc(S(=O)(=O)O)c23)cc1NC(=O)c1cccc(NC(=O)Nc2cccc(C(=O)Nc3cc(C(=O)Nc4ccc(S(=O)(=O)O)c5cc(S(=O)(=O)O)cc(S(=O)(=O)O)c45)ccc3C)c2)c1 [suramin]
uptake of fluorescently labelled LDL (HepG2 cells): increased cellular uptake of fluorescently labelled LDL particles; also recorded: increases the uptake of LDL two-fold
Kd (PCSK9): 190 µM
block of UDP effect on iNOS and interleukin-6 (J774 macrophages): blocked
LDLR level compared with statins (LDLR in HepG2 cells [2]; 100 μM suramin vs mevastatin and simvastatin, 24 and 48 hours): higher level of LDLR that cells incubated with statins
LDLR level up regulated (LDLR in HepG2 cells [2]; suramin 200 μg/ml, overnight): 15 times
liver LDLR level / PCSK9 induced degradation of LDLR in vivo (LDLR in liver): significantly higher level of LDLR
plaque size (apoE−/− mice; suramin 50 and PPADS 25 mg·kg-1·day-1, listed as Suramin): reduce plaque size
plaque size (apoE−/− mice; [6]): reduces plaque size

Mutant R93: PCSK9 alanine substitution variant
binding to heparin (affinity chromatography) [1]: less affinity for heparin

B1: heparinase I: enzyme that cleaves heparan sulfate GAG chains (Sigma Aldrich/H2519) (protein, UniProt Q05819 22-384, looked up)
Heparin lyase I: QQKKSGNIPYRVNVQADSAKQKAIIDNKWVAVGINKPYALQYDDKLRFNGKPSYRFELKAEDNSLEGYAAGETKGRTELSYSYATTNDFKKFPPSVYQNAQKLKTVYHYGKGICEQGSSRSYTFSVYIPSSFPDNATTIFAQWHGAPSRTLVATPEGEIKTLSIEEFLALYDRMIFKKNIAHDKVEKKDKDGKITYVAGKPNGWKVEQGGYPTLAFGFSKGYFYIKANSDRQWLTDKADRNNANPENSEVMKPYSSEYKTSTIAYKMPFAQFPKDCWITFDVAIDWTKYGKEANTILKPGKLDVMMTYTKNKKPQKAHIVNQQEILIGRNDDDGYYFKFGIYRVGNSTVPVTYNLSGYSETAR
intensity of surface PCSK9 staining [4]: marked decrease in the intensity of surface PCSK9 staining
liver LDLR level / PCSK9 induced degradation of LDLR in vivo (LDLR in liver): completely protected LDLR from PCSK9-induced degradation; also recorded: completely inhibits PCSK9 induced degradation of LDLR

B2: mAb 8HA: rat monoclonal antibody against the HSPG binding domain; VH SEQ ID NO: 9, VK SEQ ID NO: 3 (antibody, V domains shown)
VH: QVTLKESGPGILQPSQTLSLTCSFSGFSLSSSGICVSWIRQPSGKGLEWLATICWEDSKGYNPSLKNRLTISKDTSNNQALLRITSVDTADTAIYYCARVYYWYFDFWGPGTMVTVSS
VL: DIVMTQSPSLLSASVGDRVTLSCKGSQNINNYLAWYQQKLGEAPKLLIYNTNSLQTGIPSRFSGSGSGTDCTLTIRSLQPEDVATYFCYQYNNGNTFGGGTKLELK
increase of cellular LDLR (LDLR in HepG2 cells [2]; mAbs, 1:10 dilution of conditioned hybridoma media): approximately two fold
binding of R93R96R97R104R105H139 PCSK9 mutant (immunoprecipitation) [5]: not able to bind this mutant
